# From the CheMixHub ionic liquid set
# ± gives the uncertainty stated by the source.
# Assay: xn = mol fraction of the nth substance listed
# Details: 101.3 kPa, x2 = 0; for electrical conductivity: frequency 0.001 MHz
structure (smiles),measurement,setting,value
C[N+](C)(C)Cc1ccccc1.[Cl-] + O=C([O-])C1=NN(c2ccc(S(=O)(=O)[O-])cc2)C(=O)C1N=Nc1ccc(S(=O)(=O)[O-])cc1.[Na+].[Na+].[Na+] + O,electrical conductivity,"298.15 K, x1 = 1.802e-05",0.0137 ± 0.0052 S/m
same,electrical conductivity,"298.15 K, x1 = 5.406e-05",0.0295 ± 0.0056 S/m
same,electrical conductivity,"298.15 K, x1 = 9.009e-05",0.0457 ± 0.0069 S/m
same,viscosity,"298.15 K, x1 = 1.802e-05",0.88 ± 0.045 mPa·s
same,viscosity,"298.15 K, x1 = 5.406e-05",0.897 ± 0.045 mPa·s
same,viscosity,"298.15 K, x1 = 9.009e-05",0.914 ± 0.045 mPa·s
same,electrical conductivity,"308.15 K, x1 = 1.802e-05",0.0183 ± 0.0062 S/m
same,electrical conductivity,"308.15 K, x1 = 5.406e-05",0.0398 ± 0.0071 S/m
same,electrical conductivity,"308.15 K, x1 = 9.009e-05",0.0565 ± 0.0079 S/m
same,viscosity,"308.15 K, x1 = 1.802e-05",0.726 ± 0.044 mPa·s
same,viscosity,"308.15 K, x1 = 5.406e-05",0.747 ± 0.044 mPa·s
same,viscosity,"308.15 K, x1 = 9.009e-05",0.766 ± 0.045 mPa·s
same,electrical conductivity,"318.15 K, x1 = 1.802e-05",0.0233 ± 0.0077 S/m
same,electrical conductivity,"318.15 K, x1 = 5.406e-05",0.0456 ± 0.0084 S/m
same,electrical conductivity,"318.15 K, x1 = 9.009e-05",0.0643 ± 0.0094 S/m
same,viscosity,"318.15 K, x1 = 1.802e-05",0.611 ± 0.044 mPa·s
same,viscosity,"318.15 K, x1 = 5.406e-05",0.627 ± 0.044 mPa·s
same,viscosity,"318.15 K, x1 = 9.009e-05",0.646 ± 0.044 mPa·s
